Data: ChEMBL document CHEMBL1201862, “PubChem BioAssay data set” (2004)
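Cells were grown in 96-well plates and exposed to each compound for 48 hours at five concentrations; endpoints were interpolated linearly between bracketing concentrations, or set to the highest concentration if not reached. GI50: concentration for 50% inhibition of growth.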 Active and inactive are the calls of the source. Rule as the data show it: active = GI50 up to about 1.1 µM and inactive = higher.

Columns and labels:
Experiment in all cases: inhibition of tumour cell growth, NCI panel, 48 h
[1] = tested on: 786-0
[2] = tested on: A498
[3] = tested on: A549
[4] = tested on: ACHN
[5] = tested on: CAKI-1
[6] = tested on: CCRF-CEM
[7] = tested on: COLO 205
[8] = tested on: DLD-1
[9] = tested on: DMS-114
[10] = tested on: DMS-273
[11] = tested on: EKVX
[12] = tested on: HCC 2998
[13] = tested on: HCT-116
[14] = tested on: HCT-15
[15] = tested on: HL-60
[16] = tested on: HOP-18
[17] = tested on: HOP-62
[18] = tested on: HT-29
[19] = tested on: IGROV-1
[20] = tested on: K562
[21] = tested on: KM-20L2
[22] = tested on: KM12
[23] = tested on: LOX IMVI
[24] = tested on: LXFL 529
[25] = tested on: M14
[26] = tested on: M19-MEL
[27] = tested on: MOLT-4
[28] = tested on: Malme-3M
[29] = tested on: NCI-H226
[30] = tested on: NCI-H23
[31] = tested on: NCI-H460
[32] = tested on: NCI-H522
[33] = tested on: OVCAR-3
[34] = tested on: OVCAR-4
[35] = tested on: OVCAR-5
[36] = tested on: OVCAR-8
[37] = tested on: RPMI-8226
[38] = tested on: RXF 393
[39] = tested on: RXF 631
[40] = tested on: SF-268
[41] = tested on: SF-295
[42] = tested on: SF-539
[43] = tested on: SK-MEL-2
[44] = tested on: SK-MEL-5
[45] = tested on: SK-OV-3
[46] = tested on: SN12C
[47] = tested on: SNB-19
[48] = tested on: SNB-75
[49] = tested on: SNB-78
[50] = tested on: SW-620
[51] = tested on: TK-10
[52] = tested on: U-251
[53] = tested on: UACC-257
[54] = tested on: UACC-62
[55] = tested on: UO-31
[56] = tested on: XF498
[57] = tested on: HOP-92
[58] = tested on: SK-MEL-28
[59] = tested on: SR

Measured: GI50

COC(=O)CCC12CCC(=O)C1[C@@H](C(=O)OC)C[C@H]2C(=O)OC (stereo partly drawn)
> 100 µM: [14]
inactive: [1] > 100 µM | [2] > 100 µM | [3] > 100 µM | [4] > 100 µM | [5] > 100 µM | [6] > 100 µM | [7] > 100 µM | [8] > 100 µM | [9] > 100 µM | [10] > 100 µM | [11] > 100 µM | [12] > 100 µM | [13] > 100 µM | [15] > 100 µM | [16] > 100 µM | [17] > 100 µM | [18] > 100 µM | [19] > 100 µM | [20] > 100 µM | [21] > 100 µM | [22] > 100 µM | [23] > 100 µM | [24] > 100 µM | [25] > 100 µM | [26] > 100 µM | [27] > 100 µM | [28] > 100 µM | [29] > 100 µM | [30] > 100 µM | [31] > 100 µM | [32] > 100 µM | [33] > 100 µM | [34] > 100 µM | [35] > 100 µM | [36] > 100 µM | [37] > 100 µM | [38] > 100 µM | [39] > 100 µM | [40] > 100 µM | [41] > 100 µM | [42] > 100 µM | [43] > 100 µM | [44] > 100 µM | [45] > 100 µM | [46] > 100 µM | [47] > 100 µM | [48] > 100 µM | [49] > 100 µM | [50] > 100 µM | [51] > 100 µM | [52] > 100 µM | [53] > 100 µM | [54] > 100 µM | [55] > 100 µM | [56] > 100 µM

CCc1ccccc1NC(=O)CCc1nnc(S)[nH]1
inactive: [1] > 100 µM | [2] > 100 µM | [3] > 100 µM | [4] > 100 µM | [5] > 100 µM | [6] > 100 µM | [7] > 100 µM | [8] > 100 µM | [9] > 100 µM | [10] > 100 µM | [12] > 100 µM | [13] > 100 µM | [15] > 100 µM | [17] > 100 µM | [57] > 100 µM | [18] > 100 µM | [19] > 100 µM | [20] > 100 µM | [21] > 100 µM | [22] > 100 µM | [23] > 100 µM | [24] > 100 µM | [25] > 100 µM | [26] > 100 µM | [27] > 100 µM | [28] > 100 µM | [29] > 100 µM | [30] > 100 µM | [31] > 100 µM | [32] > 100 µM | [33] > 100 µM | [34] > 100 µM | [35] > 100 µM | [36] > 100 µM | [37] > 100 µM | [38] > 100 µM | [39] > 100 µM | [40] > 100 µM | [41] > 100 µM | [42] > 100 µM | [58] > 100 µM | [43] > 100 µM | [44] > 100 µM | [45] > 100 µM | [46] > 100 µM | [47] > 100 µM | [48] > 100 µM | [49] > 100 µM | [59] > 100 µM | [50] > 100 µM | [51] > 100 µM | [52] > 100 µM | [53] > 100 µM | [54] > 100 µM | [55] > 100 µM | [56] > 100 µM
> 100 µM: [14]
